Reference: EP4755396A1, “TREATMENT OF P53 GENE MUTATION OR DEFECT NEGATIVE CANCER AND TUMOR PATIENTS” (Ascentawits Pharmaceuticals, Ltd., priority 2023, dated 2025)
Values joined by “and” are separate entries in the source; they are usually repeats but may differ in a detail not shown here. Equal values may be shown once.

What was measured:
H460 cells = assay: Cell proliferation experiment (3 days) with different administration sequences; format: cell-based; conditions: after the addition of Nutlin-3, different administration sequences (Figure 2)
Method: Further combination therapy experiments with different administration sequences of AST-3424 were carried out. Dosing regimens were set for the experiments.
Monotherapy: Each well was added with AST-3424 alone, Nutlin-3 alone, 5 µL of each compound in different concentrations (400 times) and 5 µL of medium. The cells were treated (DMSO 0.25% and 0.50%).
Combination therapy: Cells were treated with 5 µL each of AST-3424 and Nutlin-3 in different administration sequences: AST-3424 pre-treatment for 2 hours followed by co-treatment with Nutlin-3 for 6 hours; Nutlin-3 pre-treatment for 2 hours followed by co-treatment with AST-3424 for 6 hours; and co-treatment with AST-3424 and Nutlin-3 for 6 hours.

liver cancer = assay: Phase II clinical trial of AST-3424 (CTR20191399); format: in vivo, human
Excerpt: The clinical trial registration number is CTR20191399.
• 1. Male or female, aged ≥18 years old. • 2. Histopathologically confirmed advanced HCC that cannot be controlled by surgical resection or local therapy. • 3. History of prior standard systemic therapy including, but not limited to, Sorafenib and/or Oxaliplatin-based systemic chemotherapy, Lenvatinib, Regorafenib and/or Nivolumab, who have experienced disease progression, toxicity intolerance, or refusal to continue treatment with these drugs. • 4. At least one measurable lesion meeting RECIST 1.1 criteria. A lesion with a history of prior radiation therapy shall not be regarded as the measurable lesion unless a definite radiological progression is observed after radiation therapy. • 5. […] Eastern Cooperative Oncology Group (ECOG) performance status score of 0 or 1. • 7. Expected survival time ≥ 12 weeks. • 8. With or without HBV or HCV infection. a. For subjects with HBV infection, HBV-DNA level shall be <2,000 IU/ml, and antiviral therapy with entecavir, tenofovir disoproxil fumarate, or tenofovir alafenamide fumarate shall be administered according to the national guidelines for the prevention and treatment of chronic hepatitis B. The therapy shall be maintained during the study and continued for 6 months after the last dose of the study drug. b. For subjects with HCV infection (in the presence of detectable HCV-RNA or anti-HCV antibodies), treatment may be conducted according to medical practice. • 9. Child-Pugh score ≤ 6 points. • 10. No history of hepatic encephalopathy. • 11. Prior to the initiation of the study drug, all toxicities from previous anticancer therapies (except alopecia, fatigue, or peripheral neuropathy) shall have returned to Grade 1 or baseline levels (NCI CTCAE Version 5). • 12. Subject's laboratory tests shall meet the following criteria. During 14 days before screening laboratory tests, no correction of indicators by blood transfusion, hematopoietic growth factor infusion or albumin infusion is allowed to meet the inclusion criteria: a. Hemoglobin ≥ 90 g/L; b. Platelet count ≥ 80 × 10^9/L; c. Absolute neutrophil count (ANC) ≥ 1.5 × 10^9/L; d. Serum total bilirubin ≤ 3 mg/dL; E. ALT and AST ≤ 5.0 × ULN; f. International normalized ratio (INR) ≤ 2.3 or prothrombin time prolongation ≤ 6 seconds; g. Albumin ≥ 29 g/L; h. Creatinine clearance > 50 mL/min as measured according to the Cockcroft-Gault equation. • 13. No history of alcohol, drug or substance abuse within the past year. • 14. Fertile female subjects shall be in non-lactating and have a negative pregnancy test result within 5 days prior to the initiation of treatment (the subject with a positive urine pregnancy test result needs to be reconfirmed by a serum pregnancy test). • 15. Fertile female and male subjects shall agree to use effective contraceptive measures (e.g. surgical sterilization or condom or diaphragm contraception combined with spermicidal gel or intrauterine contraceptive device [IUD], etc.) with their partners from the start of study participation until 6 months after the last dose of the study drug. • 16. Voluntary participation in this study, fully understanding of the relevant risks, good compliance, and signing the informed consent. Subjects may also sign an informed consent form for future biomedical research (FBR). However, the subjects who would not participate in FBR are still allowed participate in the main trial.
• 1. Untreated active central nervous system (CNS) metastases or leptomeningeal disease. Subjects with CNS metastases that have been adequately treated and confirmed to be stable for at least 4 weeks during screening by clinical tests and brain imaging (MRI or CT) are allowed to participate in the study. • 2. […]

[1] = test system: p53, Rad51, MDM2 and p21 proteins in HPAF-II cells; assay: WB detection of p53 pathway proteins in p53 mutant cells; format: cell-based; conditions: 60 nM AST, 8 µM Nutlin-3, 24 hours (Figure 23)
Method: • 1)HPAF-II cell suspension was added to a 24-well plate, with a cell density of 300000 /well and 995 µL of medium per well. • 2) The cells were cultured overnight in an incubator at 37°C, 5% CO2. • 3) Compound treatment. After 24 hours of cell plating, the cells were grouped and dosed according to different cells.
HPAF-II were grouped as: 1% DMSO treated group, 60nM AST treated group, 8 µM Nutlin-3 treated group, AST 60nM + Nutlin-3 8 µM treated group.
Monotherapy: After 24 hours of cell plating, each well was supplied with 5µL of test compounds at different concentrations: 1% DMSO, AST 1.5nM, Nutlin-3 1µM, AST 60nM and Nutlin-3 8µM, shaken gently to ensure even mixing, and then placed at 37°C, 5% CO2 in an incubator.
Combination therapy: After 24 hours of cell plating, each well was supplied with 5µL of 1µM Nutlin-3 and Nutlin-3 8µM respectively for pre-treatment four 2 hours. Then the corresponding cells were added with […] of 1.5nM AST and 60nM AST, shaken gently to ensure even mixing, and then placed at 37°C, 5% CO2 in an incubator.
4) After incubating the 24-well plates in a 37°C, 5% CO2 incubator for 24 hours, the cell protein lysate was collected for WB detection, and the WB detection results were shown in Figure 23. […]

[2] = 8 subjects who completed efficacy evaluation, liver cancer, 6 mg/m^2 day 1 and day 8 of 21-day cycle, as of July 21, 2023
[3] = subgroup of 4 cases negative (-) for p53 gene mutation or defect, liver cancer, 6 mg/m^2 day 1 and day 8 of 21-day cycle, as of July 21, 2023

SMILES	proliferation inhibition rate of AST-3424 (H460 cells)	overall DCR (liver cancer; 8 evaluated liver cancer subjects, 6 mg/m^2 day 1 and day 8 of 21-day cycle, as of July 21, 2023)	subjects achieved PD (liver cancer; [2])	subjects achieved PR (liver cancer; [2])	subjects achieved SD (liver cancer; [2])	ORR (liver cancer; overall, 8 evaluated liver cancer subjects, 6 mg/m^2 day 1 and day 8 of 21-day cycle, as of July 21, 2023)	Efficacy evaluation (liver cancer; per case, 3 subjects with positive P53 mutation, unclear in whether it affects protein expression (VUS) (Table 10), as of March 11, 2024)	PFS (liver cancer; per case, 8 P53 mutation-positive (MUT) subjects (Table 8), 6 mg/m^2 day 1 and day 8 of 21-day cycle, as of March 11, 2024)	DCR (liver cancer; [3])	ORR (liver cancer; [3])	DCR (liver cancer; subgroup of 4 cases positive (+) for p53 gene mutation or defect, liver cancer, 6 mg/m^2 day 1 and day 8 of 21-day cycle, as of July 21, 2023)	expression of RAD51 protein (WB) [1]	expression of p53, its downstream proteins p21 and MDM2 (WB) [1]
C[C@H](OP(=O)(N1CC1)N1CC1)c1ccc([N+](=O)[O-])c(Oc2cccc(C(=O)N(C)C)c2)c1 [AST-3424]	significantly increased	75%	25%	12.5%	62.5%	12.5%	SD, lesion increase	1.4 months and 1.6 months and 1.5 months and 1.2 months	75%	25%	75%		
O=[N+]([O-])c1ccc(C(OP(=O)(N2CC2)N2CC2)C(F)(F)F)cc1Oc1ccc(-c2ccc(F)cc2)c(F)c1 (stereo not shown) [AST]												promoted the expression of RAD51 protein	no effect
